Assay results taken from US20230093099A1, “COMPOUNDS AND METHODS OF TREATING CANCERS” (CULLGEN (SHANGHAI), INC., priority 2019, published 2023).

test system: RS4;11 cells; experiment: Cell viability assay (CellTiter-Glo) in RS4;11 cells; type: cell-based; conditions: Homo sapiens, 72 h; RS4;11 cells; cell viability, 3 days, CellTiter-Glo; read-out: IC50
Summary of the method: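 Three-day compound treatment of RS4;11 ALL cells (5000/well, 3-fold dilution series of 8 or 12 points), with IC50 from a nonlinear least-squares fit to CellTiter-Glo viability data.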

Row | Compound | IC50
1 | Cc1cnc(Nc2ccc(N3CCN(CC(=O)NCCCC(=O)N[C@H](C(=O)N4C[C@H](O)C[C@H]4C(=O)NCc4ccc(-c5scnc5C)cc4)C(C)(C)C)CC3)cc2)nc1Nc1cccc(S(=O)(=O)NC(C)(C)C)c1 [JA-099, (2S,4R)-1-((S)-2-(4-(2-(4-(4-((4-((3-(N-(tert-Butyl)sulfamoyl)phenyl)amino)-5-methylpyrimidin-2-yl)amino)phenyl)piperazin-1-yl)acetamido)butanamido)-3,3-dimethylbutanoyl)-4-hydroxy-N-(4-(4-methylthiazol-5-yl)benzyl)pyrrolidine-2-carboxamide] | 3.7 µM
2 | Cc1cnc(Nc2ccc(N3CCN(CC(=O)NCCCCC(=O)N[C@H](C(=O)N4C[C@H](O)C[C@H]4C(=O)NCc4ccc(-c5scnc5C)cc4)C(C)(C)C)CC3)cc2)nc1Nc1cccc(S(=O)(=O)NC(C)(C)C)c1 [JA-100, (2S,4R)-1-((S)-2-(5-(2-(4-(4-((4-((3-(N-(tert-Butyl)sulfamoyl)phenyl)amino)-5-methylpyrimidin-2-yl)amino)phenyl)piperazin-1-yl)acetamido)pentanamido)-3,3-dimethylbutanoyl)-4-hydroxy-N-(4-(4-methylthiazol-5-yl)benzyl)pyrrolidine-2-carboxamide] | > 10 µM
3 | Cc1cnc(Nc2ccc(N3CCN(CC(=O)NCCCCCC(=O)N[C@H](C(=O)N4C[C@H](O)C[C@H]4C(=O)NCc4ccc(-c5scnc5C)cc4)C(C)(C)C)CC3)cc2)nc1Nc1cccc(S(=O)(=O)NC(C)(C)C)c1 [JA-101, (2S,4R)-1-((S)-2-(6-(2-(4-(4-((4-((3-(N-(tert-Butyl)sulfamoyl)phenyl)amino)-5-methylpyrimidin-2-yl)amino)phenyl)piperazin-1-yl)acetamido)hexanamido)-3,3-dimethylbutanoyl)-4-hydroxy-N-(4-(4-methylthiazol-5-yl)benzyl)pyrrolidine-2-carboxamide] | > 10 µM
4 | Cc1cnc(Nc2ccc(N3CCN(CC(=O)NCCCCCCC(=O)N[C@H](C(=O)N4C[C@H](O)C[C@H]4C(=O)NCc4ccc(-c5scnc5C)cc4)C(C)(C)C)CC3)cc2)nc1Nc1cccc(S(=O)(=O)NC(C)(C)C)c1 [JA-102, (2S,4R)-1-((S)-2-(7-(2-(4-(4-((4-((3-(N-(tert-Butyl)sulfamoyl)phenyl)amino)-5-methylpyrimidin-2-yl)amino)phenyl)piperazin-1-yl)acetamido)heptanamido)-3,3-dimethylbutanoyl)-4-hydroxy-N-(4-(4-methylthiazol-5-yl)benzyl)pyrrolidine-2-carboxamide] | > 10 µM
5 | Cc1cnc(Nc2ccc(N3CCN(CC(=O)NCCCCCCCC(=O)N[C@H](C(=O)N4C[C@H](O)C[C@H]4C(=O)NCc4ccc(-c5scnc5C)cc4)C(C)(C)C)CC3)cc2)nc1Nc1cccc(S(=O)(=O)NC(C)(C)C)c1 [JA-103, (2S,4R)-1-((S)-2-(8-(2-(4-(4-((4-((3-(N-(tert-Butyl)sulfamoyl)phenyl)amino)-5-methylpyrimidin-2-yl)amino)phenyl)piperazin-1-yl)acetamido)octanamido)-3,3-dimethylbutanoyl)-4-hydroxy-N-(4-(4-methylthiazol-5-yl)benzyl)pyrrolidine-2-carboxamide] | 8.96 µM
6 | Cc1cnc(Nc2ccc(N3CCN(CC(=O)NCCCCCCCCC(=O)N[C@H](C(=O)N4C[C@H](O)C[C@H]4C(=O)NCc4ccc(-c5scnc5C)cc4)C(C)(C)C)CC3)cc2)nc1Nc1cccc(S(=O)(=O)NC(C)(C)C)c1 [JA-104, (2S,4R)-1-((S)-2-(9-(2-(4-(4-((4-((3-(N-(tert-Butyl)sulfamoyl)phenyl)amino)-5-methylpyrimidin-2-yl)amino)phenyl)piperazin-1-yl)acetamido)nonanamido)-3,3-dimethylbutanoyl)-4-hydroxy-N-(4-(4-methylthiazol-5-yl)benzyl)pyrrolidine-2-carboxamide] | > 10 µM
7 | Cc1cnc(Nc2ccc(N3CCN(CC(=O)NCCCCCCCCCC(=O)N[C@H](C(=O)N4C[C@H](O)C[C@H]4C(=O)NCc4ccc(-c5scnc5C)cc4)C(C)(C)C)CC3)cc2)nc1Nc1cccc(S(=O)(=O)NC(C)(C)C)c1 [JA-105, (2S,4R)-1-((S)-2-(10-(2-(4-(4-((4-((3-(N-(tert-Butyl)sulfamoyl)phenyl)amino)-5-methylpyrimidin-2-yl)amino)phenyl)piperazin-1-yl)acetamido)decanamido)-3,3-dimethylbutanoyl)-4-hydroxy-N-(4-(4-methylthiazol-5-yl)benzyl)pyrrolidine-2-carboxamide] | > 10 µM
8 | Cc1cnc(Nc2ccc(N3CCN(CC(=O)NCCCCCCCCCCC(=O)N[C@H](C(=O)N4C[C@H](O)C[C@H]4C(=O)NCc4ccc(-c5scnc5C)cc4)C(C)(C)C)CC3)cc2)nc1Nc1cccc(S(=O)(=O)NC(C)(C)C)c1 [JA-106, (2S,4R)-1-((S)-2-(11-(2-(4-(4-((4-((3-(N-(tert-Butyl)sulfamoyl)phenyl)amino)-5-methylpyrimidin-2-yl)amino)phenyl)piperazin-1-yl)acetamido)undecanamido)-3,3-dimethylbutanoyl)-4-hydroxy-N-(4-(4-methylthiazol-5-yl)benzyl)pyrrolidine-2-carboxamide] | > 10 µM
9 | Cc1cnc(Nc2ccc(N3CCN(C(=O)CCCCNc4cccc5c4C(=O)N(C4CCC(=O)NC4=O)C5=O)CC3)cc2)nc1Nc1cccc(S(=O)(=O)NC(C)(C)C)c1 (stereo not drawn) [JA-107, N-(tert-Butyl)-3-((2-((4-(4-(5-((2-(2,6-dioxopiperidin-3-yl)-1,3-dioxoisoindolin-4-yl)amino)pentanoyl)piperazin-1-yl)phenyl)amino)-5-methylpyrimidin-4-yl)amino)benzenesulfonamide] | 2.27 µM
10 | Cc1cnc(Nc2ccc(N3CCN(C(=O)COCCOCCOCC(=O)N[C@H](C(=O)N4C[C@H](O)C[C@H]4C(=O)NCc4ccc(-c5scnc5C)cc4)C(C)(C)C)CC3)cc2)nc1Nc1cccc(S(=O)(=O)NC(C)(C)C)c1 [JA-108, (2S,4R)-1-((S)-2-(tert-Butyl)-14-(4-(4-((4-((3-(N-(tert-butyl)sulfamoyl)phenyl)amino)-5-methylpyrimidin-2-yl)amino)phenyl)piperazin-1-yl)-4,14-dioxo-6,9,12-trioxa-3-azatetradecanoyl)-4-hydroxy-N-(4-(4-methylthiazol-5-yl)benzyl)pyrrolidine-2-carboxamide] | > 10 µM
11 | CS(=O)(=O)c1ccc(-c2cccc3nc(Nc4ccc(N5CCN(CC(=O)NCCCCNc6cccc7c6C(=O)N(C6CCC(=O)NC6=O)C7=O)CC5)cc4)nn23)cc1 (stereo not drawn) [JA-109, N-(4-((2-(2,6-Dioxopiperidin-3-yl)-1,3-dioxoisoindolin-4-yl)amino)butyl)-2-(4-(4-((5-(4-(methylsulfonyl)phenyl)-[1,2,4]triazolo[1,5-a]pyridin-2-yl)amino)phenyl)piperazin-1-yl)acetamide] | > 10 µM
12 | CS(=O)(=O)c1ccc(-c2cccc3nc(Nc4ccc(N5CCN(CC(=O)NCCOCCNc6cccc7c6C(=O)N(C6CCC(=O)NC6=O)C7=O)CC5)cc4)nn23)cc1 (stereo not drawn) [JA-110, N-(2-(2-((2-(2,6-Dioxopiperidin-3-yl)-1,3-dioxoisoindolin-4-yl)amino)ethoxy)ethyl)-2-(4-(4-((5-(4-(methylsulfonyl)phenyl)-[1,2,4]triazolo[1,5-a]pyridin-2-yl)amino)phenyl)piperazin-1-yl)acetamide] | > 10 µM
13 | CS(=O)(=O)c1ccc(-c2cccc3nc(Nc4ccc(N5CCN(CC(=O)NCCCNc6cccc7c6C(=O)N(C6CCC(=O)NC6=O)C7=O)CC5)cc4)nn23)cc1 (stereo not drawn) [JA-111, N-(3-((2-(2,6-Dioxopiperidin-3-yl)-1,3-dioxoisoindolin-4-yl)amino)propyl)-2-(4-(4-((5-(4-(methylsulfonyl)phenyl)-[1,2,4]triazolo[1,5-a]pyridin-2-yl)amino)phenyl)piperazin-1-yl)acetamide] | > 10 µM
14 | CS(=O)(=O)c1ccc(-c2cccc3nc(Nc4ccc(N5CCN(CC(=O)NCCCCCCNc6cccc7c6C(=O)N(C6CCC(=O)NC6=O)C7=O)CC5)cc4)nn23)cc1 (stereo not drawn) [JA-112, N-(6-((2-(2,6-Dioxopiperidin-3-yl)-1,3-dioxoisoindolin-4-yl)amino)hexyl)-2-(4-(4-((5-(4-(methylsulfonyl)phenyl)-[1,2,4]triazolo[1,5-a]pyridin-2-yl)amino)phenyl)piperazin-1-yl)acetamide] | > 10 µM
15 | CS(=O)(=O)c1ccc(-c2cccc3nc(Nc4ccc(N5CCN(CC(=O)NCCCCCNc6cccc7c6C(=O)N(C6CCC(=O)NC6=O)C7=O)CC5)cc4)nn23)cc1 (stereo not drawn) [JA-113, N-(5-((2-(2,6-Dioxopiperidin-3-yl)-1,3-dioxoisoindolin-4-yl)amino)pentyl)-2-(4-(4-((5-(4-(methylsulfonyl)phenyl)-[1,2,4]triazolo[1,5-a]pyridin-2-yl)amino)phenyl)piperazin-1-yl)acetamide] | > 10 µM
16 | CS(=O)(=O)c1ccc(-c2cccc3nc(Nc4ccc(N5CCN(CC(=O)NCCOCCOCCOCCOCCNc6cccc7c6C(=O)N(C6CCC(=O)NC6=O)C7=O)CC5)cc4)nn23)cc1 (stereo not drawn) [JA-114, N-(14-((2-(2,6-Dioxopiperidin-3-yl)-1,3-dioxoisoindolin-4-yl)amino)-3,6,9,12-tetraoxatetradecyl)-2-(4-(4-((5-(4-(methylsulfonyl)phenyl)-[1,2,4]triazolo[1,5-a]pyridin-2-yl)amino)phenyl)piperazin-1-yl)acetamide] | > 10 µM
17 | CS(=O)(=O)c1ccc(-c2cccc3nc(Nc4ccc(N5CCN(CC(=O)NCCOCCOCCNc6cccc7c6C(=O)N(C6CCC(=O)NC6=O)C7=O)CC5)cc4)nn23)cc1 (stereo not drawn) [JA-115, N-(2-(2-(2-((2-(2,6-Dioxopiperidin-3-yl)-1,3-dioxoisoindolin-4-yl)amino)ethoxy)ethoxy)ethyl)-2-(4-(4-((5-(4-(methylsulfonyl)phenyl)-[1,2,4]triazolo[1,5-a]pyridin-2-yl)amino)phenyl)piperazin-1-yl)acetamide] | 2.14 µM
18 | CS(=O)(=O)c1ccc(-c2cccc3nc(Nc4ccc(N5CCN(CC(=O)NCCCCCCCNc6cccc7c6C(=O)N(C6CCC(=O)NC6=O)C7=O)CC5)cc4)nn23)cc1 (stereo not drawn) [JA-116, N-(7-((2-(2,6-Dioxopiperidin-3-yl)-1,3-dioxoisoindolin-4-yl)amino)heptyl)-2-(4-(4-((5-(4-(methylsulfonyl)phenyl)-[1,2,4]triazolo[1,5-a]pyridin-2-yl)amino)phenyl)piperazin-1-yl)acetamide] | > 10 µM
